{
  "source": "patent US8008506B2",
  "about": "“Indazole compounds” (priority 2008, dated 2011)",
  "key": {"[1]": {"target": "T1, human β3 adrenergic receptor (Homo sapiens, UniProt P13945)", "T1 construct": "the full length human β3 gene is obtained from a human genomic library; expressed in transfected cells; host or cells: CHO (Chinese Hamster Ovary) cells, pcDNA3, geneticin selection", "T1 sequence (P13945 whole entry)": "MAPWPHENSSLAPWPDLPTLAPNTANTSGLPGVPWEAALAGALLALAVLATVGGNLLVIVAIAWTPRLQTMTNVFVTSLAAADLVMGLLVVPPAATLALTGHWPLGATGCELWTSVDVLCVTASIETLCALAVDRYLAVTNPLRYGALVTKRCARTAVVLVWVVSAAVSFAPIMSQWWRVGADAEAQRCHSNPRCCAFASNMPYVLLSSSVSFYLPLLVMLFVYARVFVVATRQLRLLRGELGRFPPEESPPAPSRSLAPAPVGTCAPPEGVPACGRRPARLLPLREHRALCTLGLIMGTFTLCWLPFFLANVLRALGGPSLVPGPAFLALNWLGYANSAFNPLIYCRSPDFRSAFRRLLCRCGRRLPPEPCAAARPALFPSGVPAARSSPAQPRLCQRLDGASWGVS", "experiment": "Test Example 1-A: human β3 adrenergic receptor agonist activity (cAMP EIA, transfected CHO cells, 24-well)", "format": "cell-based", "details": "Table 1; maximum response to isoproterenol taken as 100%", "experimental": "(§1) Measurement of Human β3 Adrenergic Receptor Agonist Activity\nThe measurement of human β3 adrenergic receptor agonist activity is carried out using CHO (Chinese Hamster Ovary) cells transfected with pcDNA3 (manufactured by Invitrogen, Inc.) to which human β3 gene has been inserted. […] This human β3 cDNA fragment is used as a probe, and the full length human β3 gene is obtained from a human genomic library (manufactured by Clontech Laboratories, Inc.). The above cells are cultured in Ham's F-12 medium containing 10% fetal bovine serum and 400 μg/ml geneticin (manufactured by Invitrogen, Inc.). These cells are seeded on a 24-well plate to a concentration of 1×10^5 cells/well, and after being cultured for about 20 hours, the cells are left to stand in serum-free Ham's F-12 medium for 2 hours. A test compound is initially dissolved in DMSO, and then is diluted stepwise with Ham's F-12 containing 20 mmol/L HEPES, 1 mmol/L isobutylmethylxanthine, and 1 mmol/L ascorbic acid. The dilution is added to the cells. After the cells are cultured for 30 minutes, and then the medium is removed, followed by addition of 0.1 ml of 1 N NaOH to the cells. The cells are left to stand for 20 minutes, and then are added with 0.1 ml of 1 N acetic acid and are stirred. The resulting cell lysate is centrifuged, and then is subjected to quantification of cAMP with cAMP EIA kit (manufactured by Cayman Chemical Co.)."}, "[2]": {"target": "T1, human β3 adrenergic receptor", "experiment": "Test Example 1-B: human β3 adrenergic receptor agonist activity (cAMP-Screen kit, transfected CHO cells, 96-well)", "format": "cell-based", "details": "Table 2; maximum response to isoproterenol taken as 100%", "experimental": "as §1\nThe measurement of human β3 adrenergic receptor agonist activity is carried out using CHO (Chinese Hamster Ovary) cells transfected with pcDNA3 (manufactured by Invitrogen, Inc.) to which human β3 gene has been inserted. […] This human β3 cDNA fragment is used as a probe, and the full length human β3 gene is obtained from a human genomic library (manufactured by Clontech Laboratories, Inc.). The above cells are cultured in Ham's F-12 medium containing 10% fetal bovine serum and 400 μg/ml geneticin (manufactured by Invitrogen, Inc.). These cells are seeded on a 96-well plate to a concentration of 2×10^4 cells/well, and after being cultured for about 20 hours, the cells are left to stand in 80 μL of serum-free Ham's F-12 medium for 15 minutes. A test compound is initially dissolved in DMSO, and then is diluted stepwise with Ham's F-12 containing 100 mmol/L HEPES and 1 mmol/L isobutylmethylxanthine. 20 μL of the dilution is added to the cells. After the cells are cultured for 30 minutes, the medium is removed. 0.3. ml of the Assay/lysis Buffer included in cAMP-Screen kit (manufactured by Applied Biosystems, Inc.) is added to the cells, and the cells are incubated at 37° C. for 30 minutes. The resulting cell lysate is subjected to quantification of cAMP with the cAMP-Screen kit."}, "[3]": {"test_system": "urinary bladder smooth muscle isolated from common marmoset", "experiment": "Test Example 7: relaxant activity on urinary bladder smooth muscle isolated from common marmoset", "details": "KCl 40 mmol/L contraction, papaverine 10^−4 mol/L relaxation taken as 100%", "experimental": "Common marmosets are (CLEA Japan, Inc.) exsanguinated to death, and then are subjected to laparotomy to isolate the urinary bladder therefrom. […] The strips are applied a resting tension of 1 g, and are equilibrated for at least 30 minutes. After the resting tension of the strips have been equilibrated, KCl at a final concentration of 40 mmol/L is repeatedly added to the organ bath, and it is confirmed that contraction due to KCl becomes almost constant. […] When the relaxation response at the maximum concentration of the test compound is completed, papaverine at a final concentration of 10^−4 mol/L is added, and the maximum relaxation response of each strip is determined."}},
  "data": [
    {"smiles": "CC(C)NCC(O)c1ccc(O)c(O)c1", "note": "(stereo not shown) [Isoproterenol, reference compound]", "values": [
      {"measurement": "β3 receptor I.A.", "setting": "[1]", "result": 100, "unit": "%"},
      {"measurement": "β3 receptor I.A.", "setting": "[2]", "result": 100, "unit": "%"},
      {"measurement": "relaxant activity (%) 10^−4 M", "setting": "[3]; 10^−4 M", "result": 62.8, "unit": "%"},
      {"measurement": "relaxant activity (%) 10^−5 M", "setting": "[3]; 10^−5 M", "result": 58.0, "unit": "%"}
    ]}
  ]
}
